Read-outs that look alike come from different tables or passages of the source.
Assays:
[1] = biological target: SARS-CoV-2 nsp13 (Severe acute respiratory syndrome coronavirus 2, UniProt P0DTD1); assay type: binding
[2] = biological target: T1, SARS-CoV-2 helicase (nsp13) (Severe acute respiratory syndrome coronavirus 2, UniProt P0DTD1)
[3] = biological target: T1, SARS-CoV-2 helicase (nsp13); settings: read-out: IC50 for unwinding activity
[4] = 100 nM nsp13, compound at 1 μM, 10 nM probe

Row | Molecule | fluorescence intensity of BODIPY FL ATP-γ-S with nsp13 [1, 4] | fluorescence intensity of BODIPY FL ATP-γ-S with nsp13 [1] | also measured
1 | Nc1nc2nc[nH]c2c(=S)[nH]1 [6-TG, 6-thioguanine] | did not observe any apparent decrease in the fluorescence intensity |  | 
2 | Nc1ccc([O-])c(=O)cc1.Nc1ccc([O-])c(=O)cc1.Nc1ccc([O-])c(=O)cc1.[Bi+3] [Bi(Tro-NH2)3, Bi(5-aminotropolonate)3] |  |  | fold lower ATPase IC50 than that of Bi(NAC)3 [2]: over 30 fold; IC50 ([2]; read-out: IC50 for ATPase): 30 nM; IC50 [3]: 360 ± 20 nM
3 | N[C@@H](CCC(=O)N[C@@H](CS)C(=O)NCC(=O)O)C(=O)O [GSH, glutathione] |  | did not observe any apparent decrease in the fluorescence intensity | 
4 | CC(=O)N[C@@H](CS)C(=O)O [NAC, N-acetyl cysteine] | did not observe any apparent decrease in the fluorescence intensity |  | 
5 | colloidal bismuth subcitrate [CBS] |  | decreased fluorescence intensities | 
6 | CC(C)c1cccc(=O)c(O)c1 [Hino, hinokitiol] | did not observe any apparent decrease in the fluorescence intensity |  | 

Source: PMC11220592 (Chemical Science, 2024)
